Measurements from patent US20250152650A1, “COMPOSITIONS FOR TREATING SEA LICE IN SALMON AND RELATED METHODS” (KEMIN INDUSTRIES, INC., priority 2023, published 2025).
Where two headings read alike, the source gives them in different places.

What was measured:
salmon = settings: farmed salmon; cited from earlier work
[1] = test system: mobile stage sea lice (adults and pre-adults); assay: Mobile stages bioassay; design: species or system Lepeophtheirus salmonis
sea lice = assay: In-feed trial with sea lice challenge in Atlantic salmon; format: in vivo, Atlantic salmon (Salmo salar); settings: for Reduction Versus Control: reduction in mean number of lice at 6-7 dpi versus Control Diet; for Reduction Versus Control / Reduction Versus SLICE: diet doses as in Table 10; for Reduction Versus SLICE: reduction in mean number of lice at 6-7 dpi versus SLICE (10 ppm) diet; for Mean Number of Lice: total copepodid and chalimus lice per fish at 6-7 dpi, study diet fed 3 weeks before challenge with approx. 140 lice per fish, O-LD oregano oil 2000 ppm, O-HD 5000 ppm, M-LD Monarda fistulosa oil 2000 ppm, thymol 1000 ppm, thymoquinone 500 ppm, SLICE 10 ppm
[2] = test system: copepodids of Norwegian origin; assay: whole plant or invertebrate; settings: Lepeophtheirus salmonis, 24 h, read-out: lethality / lice mortality
[3] = test system: copepodids of Norwegian origin; settings: for Mean proportion of survival: 24 hours exposure
[4] = test system: L. salmonis copepodids of Canadian origin; assay: Copepodid bioassay, copepodids of Canadian origin; design: species or system Lepeophtheirus salmonis; settings: for Mean proportion of survival: 24 hours exposure
copepodid sea lice = settings: 10 parts per trillion, purified compounds; cited from earlier work

Row | Molecule | Mean proportion of survival ([1]; 1 ppb, 6 hours exposure) | Mean proportion of survival ([1]; 1 ppb, 24 hours exposure) | Mean proportion of survival ([1]; 1 ppm, 6 hours exposure) | Mean proportion of survival ([1]; 1 ppm, 24 hours exposure) | Mean proportion of survival ([1]; 10 ppb, 6 hours exposure) | Mean proportion of survival ([1]; 10 ppb, 24 hours exposure) | Mean proportion of survival ([1]; 10 ppm, 6 hours exposure) | Mean proportion of survival ([1]; 10 ppm, 24 hours exposure) | Mean proportion of survival ([1]; 100 ppb, 6 hours exposure) | Mean proportion of survival ([1]; 100 ppb, 24 hours exposure) | Reduction Versus Control (sea lice) | Reduction Versus SLICE (sea lice) | Mean Number of Lice (sea lice) | Mean proportion of survival ([3]; 0.01 ppb) | Mean proportion of survival ([3]; 0.1 ppb) | Mean proportion of survival ([3]; 1 ppb) | Mean proportion of survival ([3]; 1 ppm) | Mean proportion of survival ([3]; 10 ppb) | Mean proportion of survival ([3]; 10 ppm) | Mean proportion of survival ([3]; 100 ppb) | further results
1 | OO [hydrogen peroxide] |  |  |  |  |  |  |  |  |  |  |  |  |  |  |  |  |  |  |  |  | mortality caused by a single treatment (salmon): 1%
2 | CC1=CC(=O)C(C(C)C)=CC1=O [Thymoquinone] | 93.3 ± 9.4% | 93.3 ± 9.4% | 100.0 ± 0.0% | 83.7 ± 14.7% | 81.7 ± 5.4% | 87.1 ± 5.4% | 60.7 ± 5.1% | 0.0 ± 0.0 % | 91.7 ± 2.4% | 91.7 ± 2.4% | 1.7% | 21.7% | 59.1 | 98.1 ± 3.2% | 98.6 ± 2.4% | 97.3 ± 2.5% | 75.6 ± 9.3 % | 100.0 ± 0.0% | 0.0 ± 0.0 % | 92.9 ± 9.1% | Mean proportion of survival ([1]; 1 ppm, 24 hours exposure, listed as thymoquinone): not significantly different to control; Mean proportion of survival ([1]; 10 ppm, 24 hours exposure, listed as thymoquinone): completely lethal; mortality at 10 ppm [2]: 100%; Mean proportion of survival ([3]; 1 ppm, listed as thymoquinone): did not result in a biologically significant reduction in survival
3 | C=CCSSCC=C [Diallyl disulfide, diallyl disulfide] |  |  |  |  |  |  | 100.0 ± 0.0% | 96.7 ± 4.7% |  |  |  |  |  |  |  |  |  |  |  |  | survival compared to control, in words ([1]; 10 and 100 ppm): did not result in different survival compared to control; Mean proportion of survival ([1]; 100 ppm, 6 hours exposure): 96.2 ± 5.4%; Mean proportion of survival ([1]; 100 ppm, 24 hours exposure): 88.7 ± 5.8%; Mean proportion of survival ([4]; 1 ppb): 96.9 ± 2.7%; Mean proportion of survival ([4]; 1 ppm): 86.3 ± 4.0%; Mean proportion of survival ([4]; 10 ppb): 93.6 ± 8.0%; Mean proportion of survival ([4]; 10 ppm): 34.6 ± 6.4%; Mean proportion of survival ([4]; 10 ppm, listed as DD): 34.6%; Mean proportion of survival ([4]; 100 ppb): 95.2 ± 4.6%; Mean proportion of survival ([4]; 100 ppm (0.01%)): 17.4 ± 3.2%; Mean proportion of survival ([4]; 100 ppm (0.01%), listed as DD): 17.4%; masking of copepodid attraction to hosts or alpha-isophorone conditioned seawater (copepodid sea lice): masked copepodid sea lice attraction to hosts
4 | C=CCSCC=C [diallyl sulfide] |  |  |  |  |  |  |  |  |  |  |  |  |  |  |  |  |  |  |  |  | masking of copepodid attraction to hosts or alpha-isophorone conditioned seawater (copepodid sea lice): masked copepodid sea lice attraction to hosts
5 | emamectin benzoate [EMB, reference compound] |  |  |  |  |  |  |  |  | 96.7 ± 4.7% |  |  |  |  |  | 0.0 ± 0.0% | 0.0 ± 0.0% |  | 0.0 ± 0.0% |  |  | Mean proportion of survival ([1]; 200 ppb, 6 hours exposure): 56.7 ± 4.7%; Mean proportion of survival ([1]; 200 ppb, 24 hours exposure): 53.3 ± 18.9%; Mean proportion of survival ([1]; 400 ppb, 6 hours exposure): 36.7 ± 14.1%; Mean proportion of survival ([1]; 400 ppb, 24 hours exposure): 23.3 ± 4.7%; Mean proportion of survival ([1]; 500 ppb, 24 hours, follow up trial): 46.9 ± 9.8%; survival, range over the dilution set ([4]; 0.5-50 ppb, 24 hours): 35.5-53.2%; Mean proportion of survival ([4]; 0.5 ppb): 53.2 ± 10.2%; Mean proportion of survival ([4]; 5 ppb): 50.7 ± 6.1%; Mean proportion of survival ([4]; 50 ppb): 35.5 ± 2.1%; survival, in words ([3]; all tested concentrations between 10 and 0.1 ppb): no survival
6 | Cc1ccc(C(C)C)c(O)c1 [Thymol] | 100.0 ± 0.0% | 96.2 ± 5.4% | 92.8 ± 0.7% | 92.8 ± 0.7% | 95.8 ± 5.9% | 88.1 ± 5.0% | 23.7 ± 6.9% |  | 97.1 ± 4.2% | 97.1 ± 4.2% | 1.2% | −14.6% | 86.5 | 98.7 ± 2.2% | 93.9 ± 4.4% | 100.0 ± 0.0% | 87.9 ± 3.9% | 93.1 ± 9.3% | 56.1 ± 2.0 % | 84.4 ± 6.1% | Mean proportion of survival ([1]; 1 ppm, 24 hours exposure, listed as thymol): not significantly different to control
